Patent US10253002B2, “Compounds and methods of treating infections” (Neoculi Pty Ltd., priority 2013, dated 2019)
Values after ≈ are worked out from the molar mass of the structure shown. Where two headings read alike, the source gives them in different places.

Experiments:
S. pneumoniae isolates = assay: MBC, Example 5; assay type: cell-based, Streptococcus pneumoniae
Description: [Micro-broth dilutions and 96 well trays are prepared by the following method: 90 μL of 4% LHB:CAMHB is aliquotted into all wells using a multichannel pipette. 90 μL of working antimicrobial stocks were no serial diluted down the tray by a 1:2 dilution. Negative broth controls and dilution control were taken into account when planning the set up of a 96 well tray.] 10 μL of bacterial suspension was then added to the appropriate wells in the 96 well tray. Appropriate positive (no antimicrobial), negative (no antimicrobial or bacteria) and negative dilution (a serial dilution control of antimicrobial and broth) controls were included in each assay. […] The MBC was determined by a 99.95% inhibition of S. pneumoniae, taking into account the dilution factor. MICs and MBCs were determined in quadruplicate and the mode was taken as the representative value. The MIC50, MIC90 and MIC range and MBC50, MBC90 and MBC range were determined according to CLSI standards. The MIC50 and MIC90, or MBC50 and MBC90, are defined by the lowest concentrations which, when all the MICs and MBCs of the isolates are arranged from lowest to highest, inhibited the 50th and 90th percentile of the total amount of isolates, respectively.

S. pneumoniae strain D39 = assay: microbe, parasite or virus in culture; assay type: cell-based; conditions: Streptococcus pneumoniae
Description: Macro-broth dilutions were prepared as above. […] Samples were centrifuged at a relative centrifugal force (RCF) of 101.45×g for 10 min and washed in 50 mL of phosphate buffered saline (PBS) twice to remove any residual antimicrobial, and/or bacterial end products and media. Washed bacteria were resuspended and MICs were performed.

[1] = test system: ATP release from S. aureus ATCC 29213; assay: ATP release assay (CellTiter-Glo); assay type: cell-based, Staphylococcus aureus; conditions: at the MIC ([…] μg/ml); 30 min exposure
Description: The CellTiter-Glo Luminescent Cell Viability Assay (Promega) was utilized to measure the leakage of ATP from bacteria. […] The negative control received 2% DMSO, which represented the final DMSO concentration in each assay. After a 30 min exposure to drug, cells were sedimented by centrifugation and the supernatant was analyzed for the presence of ATP. Results were expressed as ATP concentration released to the medium (μM).

SMILES: CC1(C)S[C@@H]2[C@H](NC(=O)[C@H](N)c3ccccc3)C(=O)N2[C@H]1C(=O)O [Ampicillin]
- MBC (S. pneumoniae isolates; Streptococcus pneumoniae, isolate P21, Table 22, CAMHB diluent for NCL062, read-out: MBC): 0.045 µg/mL (≈ 0.129 µM)
- MBC (S. pneumoniae isolates; Streptococcus pneumoniae, isolate WCH57, Table 22, CAMHB diluent for NCL062, read-out: MBC): 0.09 µg/mL (≈ 0.258 µM)
- MBC (S. pneumoniae isolates; Streptococcus pneumoniae, isolate WCH158, Table 22, CAMHB diluent for NCL062, read-out: MBC): 0.022 µg/mL (≈ 0.063 µM)
- MBC (S. pneumoniae isolates; Streptococcus pneumoniae, pneumococcal isolate A66.1, read-out: MBC): 0.045 µg/mL (≈ 0.129 µM)
- MBC (S. pneumoniae isolates; Streptococcus pneumoniae, pneumococcal isolate D39, read-out: MBC): 0.023 µg/mL (≈ 0.0658 µM)
- MBC (S. pneumoniae isolates; Streptococcus pneumoniae, pneumococcal isolate EF3030, read-out: MBC): 0.023 µg/mL (≈ 0.0658 µM)
- MBC (S. pneumoniae isolates; Streptococcus pneumoniae, pneumococcal isolate L82016, read-out: MBC): 0.023 µg/mL (≈ 0.0658 µM)
- MBC (S. pneumoniae isolates; Streptococcus pneumoniae, pneumococcal isolate P9, read-out: MBC): 0.023 µg/mL (≈ 0.0658 µM)
- MBC (S. pneumoniae isolates; Streptococcus pneumoniae, pneumococcal isolate P21, read-out: MBC): 0.023 µg/mL (≈ 0.0658 µM)
- MBC (S. pneumoniae isolates; Streptococcus pneumoniae, pneumococcal isolate TIGR4, read-out: MBC): 0.023 µg/mL (≈ 0.0658 µM)
- MBC (S. pneumoniae isolates; Streptococcus pneumoniae, pneumococcal isolate WCH43, read-out: MBC): 0.023 µg/mL (≈ 0.0658 µM)
- MBC (S. pneumoniae isolates; Streptococcus pneumoniae, pneumococcal isolate WCH46, read-out: MBC): 0.045 µg/mL (≈ 0.129 µM)
- MBC (S. pneumoniae isolates; Streptococcus pneumoniae, pneumococcal isolate WCH57, read-out: MBC): 0.023 µg/mL (≈ 0.0658 µM)
- MBC (S. pneumoniae isolates; Streptococcus pneumoniae, pneumococcal isolate WCH77, read-out: MBC): 0.023 µg/mL (≈ 0.0658 µM)
- MBC (S. pneumoniae isolates; Streptococcus pneumoniae, pneumococcal isolate WCH86, read-out: MBC): 0.023 µg/mL (≈ 0.0658 µM)
- MBC (S. pneumoniae isolates; Streptococcus pneumoniae, pneumococcal isolate WCH89, read-out: MBC): 0.023 µg/mL (≈ 0.0658 µM)
- MBC (S. pneumoniae isolates; Streptococcus pneumoniae, pneumococcal isolate WCH92, read-out: MBC): 0.09 µg/mL (≈ 0.258 µM)
- MBC (S. pneumoniae isolates; Streptococcus pneumoniae, pneumococcal isolate WCH137, read-out: MBC): 0.023 µg/mL (≈ 0.0658 µM)
- MBC (S. pneumoniae isolates; Streptococcus pneumoniae, pneumococcal isolate WCH158, read-out: MBC): 0.023 µg/mL (≈ 0.0658 µM)
- MBC (S. pneumoniae isolates; Streptococcus pneumoniae, pneumococcal isolate WCH184, read-out: MBC): 0.045 µg/mL (≈ 0.129 µM)
- MBC (S. pneumoniae isolates; Streptococcus pneumoniae, pneumococcal isolate WCH211, read-out: MBC): 0.023 µg/mL (≈ 0.0658 µM)
- MBC (S. pneumoniae isolates; Streptococcus pneumoniae, pneumococcal isolate WU2, read-out: MBC): 0.023 µg/mL (≈ 0.0658 µM)
- MBC (S. pneumoniae isolates; Streptococcus pneumoniae, all S. pneumoniae isolates, read-out: MBC50): 0.023 µg/mL (≈ 0.0658 µM)
- MBC (S. pneumoniae isolates; Streptococcus pneumoniae, all S. pneumoniae isolates, read-out: MBC90): 0.023 µg/mL (≈ 0.0658 µM)
- MBC Range (S. pneumoniae isolates; all S. pneumoniae isolates): 0.011 to 0.09 µg/mL
- MBC (S. pneumoniae isolates; pneumococcal isolate WCH16): Autolysis
- MBC (S. pneumoniae strain D39; D39, 6 h, read-out: MBC of D39 following exposure to NCL-812 for 6 hrs): 0.023 µg/mL
- MIC (S. pneumoniae strain D39; D39, 6 h, read-out: MIC of D39 following exposure to NCL-812 for 6 hrs.): 0.045 µg/mL
- MBC (S. pneumoniae strain D39; D39, read-out: Original MBC of D39): 0.023 µg/mL
- MIC (S. pneumoniae strain D39; D39, read-out: Original MIC of D39): 0.023 µg/mL

SMILES: N=C(N/N=C/c1ccc(Cl)cc1)N/N=C/c1ccc(Cl)cc1 [NCL812, 1,3-bis[(E)-(4-chlorophenyl)methyleneamino]guanidine]
- maximal ATP release [1]: 0.33 µM
